This is an account of results in patent US6846660B2, “Method of making an aldehyde dehydrogenase with gluconobacter” (Roche Vitamins Inc., priority 1997, dated 2005).

The first experiment has as its target T1, aldehyde dehydrogenase (ADH) (Ketogulonicigenium vulgare, UniProt Q402A8).
T1 sequence (Q402A8 32-609): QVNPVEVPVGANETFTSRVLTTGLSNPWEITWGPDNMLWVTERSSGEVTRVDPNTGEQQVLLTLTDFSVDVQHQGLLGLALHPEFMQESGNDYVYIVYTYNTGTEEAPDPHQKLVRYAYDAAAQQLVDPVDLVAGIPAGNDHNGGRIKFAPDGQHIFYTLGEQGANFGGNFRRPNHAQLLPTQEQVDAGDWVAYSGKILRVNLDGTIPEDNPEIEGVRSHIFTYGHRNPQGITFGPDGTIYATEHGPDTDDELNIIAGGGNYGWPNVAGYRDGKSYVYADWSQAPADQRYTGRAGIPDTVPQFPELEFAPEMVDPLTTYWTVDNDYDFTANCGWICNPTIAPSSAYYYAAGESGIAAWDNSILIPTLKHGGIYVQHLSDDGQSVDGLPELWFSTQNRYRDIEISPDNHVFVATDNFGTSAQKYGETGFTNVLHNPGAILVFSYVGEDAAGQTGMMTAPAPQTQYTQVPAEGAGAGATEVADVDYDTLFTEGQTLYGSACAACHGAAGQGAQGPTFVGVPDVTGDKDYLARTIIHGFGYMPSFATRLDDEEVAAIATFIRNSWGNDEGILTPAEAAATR
Put plainly: Prosthetic group: PQQ requirement of the purified enzyme. The settings on record: added to basal reaction mixture without PQQ. Type of experiment: biochemical, Gluconobacter oxydans DSM No. 4025 (FERM BP-3812).
For `O=C(O)c1cc(C(=O)O)c2c(n1)C(=O)C(=O)c1cc(C(=O)O)[nH]c1-2` [PQQ, pyrroloquinoline quinone], the “effect of cofactor addition on enzyme activity” value is “restored”.

A further experiment addresses T1, aldehyde dehydrogenase (ADH).
Test: not given
Type of experiment: biochemical, Gluconobacter oxydans DSM No. 4025 (FERM BP-3812).
Conditions: not given
On the procedure: The reaction was started at 25° C. with L-sorbosone, and the enzyme activity was measured as the initial reduction rate of DCIP at 600 nm. […] The extinction coefficience of DCIP at pH 8.0 was taken as 15 mM^−1. A reference cuvette contained all the above constituents except L-sorbosone.
The effects of metal ions and inhibitors on the activity of the enzyme were examined by measuring the activity using the same assay method as described under 1) above. Each compound solution was stirred into the basal reaction mixture and the reaction was started with the addition of the enzyme.
For `O.O.[Ca+2].[Cl-].[Cl-]` [CaCl2.2H2O], the Relative activity is given as 204.5% and the “stimulation of enzyme activity” value is “about 2 fold”.

Turning to `O.O.O.O.O.O.[Cl-].[Cl-].[Co+2]` [CoCl2.6H2O], the Relative activity worked out at 76.0% and the “effect on enzyme activity (in words)” value was “inhibited the enzyme activity”.

In the case of `O=S(=O)([O-])[O-].[Cu+2]` [CuSO4], the Relative activity turned out to be 0.0% and the “effect on enzyme activity (in words)” value is “inhibited the enzyme activity”.

In the case of `O=S(=O)([O-])[O-].O=S(=O)([O-])[O-].O=S(=O)([O-])[O-].[Fe+3].[Fe+3]` [Fe2(SO4)3.xH2O], the Relative activity is on record as 58.9% and the “effect on enzyme activity (in words)” value is “inhibited the enzyme activity”.

With `[Cl-].[Cl-].[Mg+2]` [MgCl2], the Relative activity is 90.3%.

As for `O=C(O)CI` [Monoiodoacetate], the Relative activity is listed as 52.2%.

In the case of `[F-].[Na+]` [NaF], the Relative activity amounted to 86.7%.

As for `[N-]=[N+]=[N-].[Na+]` [NaN3], the Relative activity is given as 104.6%.

For the compound `O.O.O.O.O.O.O=S(=O)([O-])[O-].[Ni+2]` [NiSO4.6H2O], the Relative activity worked out at 74.9% and the “effect on enzyme activity (in words)” value is “inhibited the enzyme activity”.

For `[Cl][Ti]([Cl])([Cl])[Cl]` [TiCl4], the Relative activity is recorded as 128.0%.

In the case of `[Cl-].[Cl-].[Zn+2]` [ZnCl2], the Relative activity is given as 40.3% and the “effect on enzyme activity (in words)” value was “inhibited the enzyme activity”.

The experiment is the same for the next values; noted with them: compound at 1.0 mM; None = 100.0.
For `CCN1C(=O)C=CC1=O` [N-Ethylmaleimide], the Relative activity is given as 110.8%.

The next experiment shares this target. The experiment is described as follows: Identification of the oxidation products. Type of experiment: biochemical, Gluconobacter oxydans DSM No. 4025 (FERM BP-3812).
Conditions: not given
On the procedure:
The reaction mixture containing the purified enzyme (1.56 mg), L-sorbosone (0.142 mg), PMS (0.008 mg) and PQQ (0.3 mg) in 40μl of the buffer was incubated for 1.5 hours at 30° C. The reaction product was analyzed on thin layer chromatography and HPLC. As a result, the reaction product was identified as 2-KGA in comparison with an authentic sample of 2-KGA.
Consider `O=C[C@H](O)[C@@H](O)[C@@H](O)[C@H](O)CO` [D-Galactose], for which the Product result is recorded as “D-Galactonic acid”.

Take `O=C[C@@H](O)[C@@H](O)[C@H](O)[C@@H](O)CO` [L-Gulose]: the Product result was “L-Gulonic acid”.

Still in this experiment, the particulars now being: products of the oxidation of the substrates of Table 1A.
As to `O=C[C@@H](O)[C@H](O)[C@H](O)CO` [D-Arabinose], the Product entry is recorded as “D-Arabonic acid”.

`O=C[C@H](O)[C@@H](O)[C@H](O)[C@H](O)CO` [D-Glucose]: the Product entry was “D-Gluconate”.

As to `O=CC(=O)[C@@H](O)[C@H](O)[C@H](O)CO` [D-Glucosone], the Product is reported as 2-Keto-D-gluconic acid.

For the compound `O=C[C@@H](O)[C@@H](O)[C@H](O)[C@H](O)CO` [D-Mannose], the Product result is “D-Mannoic acid”.

`O=C[C@H](O)[C@H](O)[C@H](O)CO` [D-Ribose]: the Product result is “D-Ribonic acid”.

As to `O=C[C@H](O)[C@@H](O)[C@H](O)CO` [D-Xylose], the Product entry was “D-Xylonic acid”.

For the compound `O=CC(=O)[C@@H](O)[C@H](O)[C@@H](O)CO` [L-Sorbosone], the Product was 2-KGA.

The same experiment, now with this note: purified enzyme, PMS, PQQ, 1.5 hours at 30 °C; thin layer chromatography and HPLC.
For `O=CC(=O)[C@@H](O)[C@H](O)[C@@H](O)CO` [L-Sorbosone], the reaction product identified is on record as 2-KGA.

A further experiment shares this target. The experiment is described as follows: Electron acceptor suitability for oxidation of L-sorbosone to 2-KGA. The format is biochemical, Gluconobacter oxydans DSM No. 4025 (FERM BP-3812).
Conditions: not given
The text has this:
This was affirmed by the failure of the enzyme to convert L-sorbosone to 2-KGA using oxygen as a possible electron acceptor. Furthermore, no oxygen consumption was detected in the reaction mixture as detected with a dissolved oxygen probe. […] However, other conventional electron acceptors can be utilized in conjunction with the enzyme of this invention. DCIP, PMS, ferricyanide and cytochrome c are preferred electron acceptors. There is no minimum amount of electron acceptor which must be present for at least some of the aldehyde substrate to be converted to its corresponding acid. However, the amount of substrate which can be oxidized depends on the amount of the particular electron acceptor and its electron accepting characteristics.
Regarding `O=O` [oxygen], the “suitability as electron acceptor” value is reported as “does not work”.

Still in this experiment, the particulars now being: oxidation of L-sorbosone to 2-KGA by purified ADH.
For `O=C1C=CC(=Nc2cc(Cl)c(O)c(Cl)c2)C=C1` [DCIP, 2,6-dichlorophenolindophenol], the “suitability as electron acceptor” value is “oxidizes L-sorbosone to 2-KGA in the presence of electron acceptors”.

Turning to `COS(=O)(=O)[O-].C[n+]1c2ccccc2nc2ccccc21` [PMS, phenazine methosulfate], the “suitability as electron acceptor” value is on record as “oxidizes L-sorbosone to 2-KGA in the presence of electron acceptors”.

Consider cytochrome c, for which the “suitability as electron acceptor” value is “oxidizes L-sorbosone to 2-KGA in the presence of electron acceptors”.

On to “nicotinamide adenine dinucleotide phosphate [NADP]”, for which the “suitability as electron acceptor” value is on record as “not suitable electron acceptors”.
